According to patent US20140017893A1, “CMP POLISHING LIQUID AND METHOD FOR POLISHING SUBSTRATE USING THE SAME” (Hitachi Chemical Company, Ltd., priority 2007, published 2014):
≈ marks a conversion by molar mass, not a printed value.

Assay: Solubility of guanidine compounds in water, OECD Guideline 105 flask method
Type: physicochemical

SMILES | Solubility in water [mM] | solubility (water, thermodynamic from solid) [mM]
Cc1ccccc1NC(=N)NC(=N)N [o-Tolylbiguanide] | 15 (≈ 2870 µg/mL) | –
N=C(N)NN [aminoguanidine] | – | 50 (≈ 3700 µg/mL)
